Measurements as given in patent publication US9279010B2, “Treatment of inflammatory bowel diseases with mammal beta defensins” (Defensin Therapeutics ApS, priority 2008, dated 2016).
Where no end group is shown, it is not given here.

Tests used:
Type in all cases: cell-based
[1] = tested on: human peripheral blood mononuclear cells (PBMC); assay: IL-1β production from LPS-treated human PBMC, CBA (Example 5, Table 23)
Procedure: (§1) Peripheral blood was drawn from healthy volunteers (with approval from the relevant ethical committee in Denmark). Heparinized blood was diluted 1/1 v/v with RPMI and were subjected to Ficoll density centrifugation within 2 h of drawing. Plasma was collected from the top from individual donors and was kept on ice until it was used at 2% in the culture medium (autologous culture medium). Isolated PBMC were resuspended in autologous culture medium and seeded in 96-well culture plates with 255.000 cells per well in a total of 200 μl. […] The concentrations used for stimulation were optimized on 3 different donors in initial experiments, for LPS two different concentrations were used to be sure to be on a cytokine level that is possible to modulate. In some experiments PBMC were treated with Dexamethason and Indomethacin alone and together with LPS or LTA as a control on downregulation of inflammatory cytokines. The supernatants were collected after incubation at 37° C. for 24 hours, and stored at −80° C. until cytokine measurement. Viability was measured by Alamar Blue (Biosource, DALL 1100) in all experiments and in some cases also by MTS (Promega) according to manufacturer's instruction and was in some experiments also judged by counting of the cells by a Nucleocounter.
(§2) Cytokine production in supernatants was measured by flow cytometry with a human inflammation cytometric bead array (CBA) according to manufacturer's instructions (BD) on a FACSarray flow cytometer. The following cytokines were measured: IL-8, IL-1β, IL-10, TNF, IL-12 p70, IL-6. In some experiments, cytokines were measured by ELISA kits from R&D systems (IL-10, TNF-α, IL-1β) according to the manufacturer′ instruction.
(§3) Example 5 was carried out essentially as described in Example 4.
(§4) In each table, all samples were tested on the same donor. SD means standard deviation.

[2] = tested on: human peripheral blood mononuclear cells (PBMC); assay: TNF production from LPS-treated human PBMC, CBA (Example 5); details: Table 21
Procedure: as §1, §2, §3, §4

human PBMC [3] = assay: Toxicity to human PBMC (Example 5)
Procedure: as §1, §3

[4] = tested on: human peripheral blood mononuclear cells (PBMC); assay: IL-10 production from LPS-treated human PBMC, CBA (Example 5); details: Table 22
Procedure: as §1, §2, §4

human PBMC [5] = assay: IL-23 in supernatants of human PBMC, ELISA (Example 6, Table 25); details: test compound 3.5 ng/ml
Procedure: as §1
Example 6 was carried out essentially as described in Example 4 for human PBMCs; however, the readout was IL-23 instead of TNF, IL-1β and IL-10. Moreover, the effect of rhBD2 on human monocyte-derived dendritic cells was also investigated.
Cell culture supernatants were collected and stored at −80° C. Amounts of IL-23 was measured by standard sandwich ELISA using commercially available antibodies and standards according to the manufacturer's protocols (eBioscience).
All experiments were performed at least twice, with representative results shown. The data presented are expressed as mean plus/minus standard deviation […]. […] Differences were considered significant for p<0.05.

[6] = LPS 0.6 ng/ml, test compound 1 μg/ml
[7] = LPS 20 ng/ml, test compound 1 μg/ml
[8] = Medium (no LPS), test compound 1 μg/ml
[9] = LPS 0.6 ng/ml, test compound 10 μg/ml
[10] = LPS 0.6 ng/ml, test compound 40 μg/ml
[11] = LPS 20 ng/ml, test compound 10 μg/ml
[12] = LPS 20 ng/ml, test compound 40 μg/ml

hBD3: human beta defensin 3 (SEQ ID NO:3), prepared using chemical synthesis
IL-1β [1, 6]: 331 pg/mL
IL-1β % of control [1, 6]: 45%
IL-1β [1, 7]: 568 pg/mL
IL-1β % of control [1, 7]: 22%
IL-1β [1, 8]: 0 pg/mL
TNF ([2]; 1 μg/ml, LPS 0.6 ng/ml): 528 pg/mL
TNF % of control ([2]; 1 μg/ml, LPS 0.6 ng/ml): 73%
TNF ([2]; 1 μg/ml, LPS 20 ng/ml): 451 pg/mL
TNF % of control ([2]; 1 μg/ml, LPS 20 ng/ml): 21%
TNF ([2]; 1 μg/ml, Medium): 0 pg/mL
toxicity to the cells (human PBMC [3]; 10 μg/ml): toxic to the cells
toxicity to the cells (human PBMC [3]; 40 μg/ml): toxic to the cells
IL-10 ([4]; 1 μg/ml, LPS 0.6 ng/ml): 71 pg/mL
IL-10 % of control ([4]; 1 μg/ml, LPS 0.6 ng/ml): 107%
IL-10 % of control ([4]; 1 μg/ml, LPS 20 ng/ml): 137%
IL-10 ([4]; 1 μg/ml, Medium): 0 pg/mL

C[C@@H]1C[C@H]2[C@@H]3CCC4=CC(=O)C=C[C@]4(C)[C@@]3(F)[C@@H](O)C[C@]2(C)[C@@]1(O)C(=O)CO [Dexamethasone]
IL-23 pg/ml (human PBMC [5]; Control (medium)): 222 pg/mL
IL-23 pg/ml (human PBMC [5]; LTA 5 μg/ml): 223 pg/mL

hBD1: human beta defensin 1 (SEQ ID NO:1), prepared using chemical synthesis (DHYNCVSSGGQCLYSACPIFTKIQGTCYRGKAKCCK; not fully specified; cysteine pairing not given here; listed as Homo sapiens)
IL-1β [1, 6]: 512 pg/mL
IL-1β % of control [1, 6]: 69%
IL-1β [1, 9]: 401 pg/mL
IL-1β % of control [1, 9]: 54%
IL-1β [1, 10]: 302 pg/mL
IL-1β % of control [1, 10]: 41%
IL-1β [1, 7]: 2087 pg/mL
IL-1β % of control [1, 7]: 82%
IL-1β [1, 11]: 1913 pg/mL
IL-1β % of control [1, 11]: 75%
IL-1β [1, 12]: 1599 pg/mL
IL-1β % of control [1, 12]: 63%
IL-1β [1, 8]: 0 pg/mL
IL-1β ([1]; Medium (no LPS), test compound 10 μg/ml): 0 pg/mL
IL-1β ([1]; Medium (no LPS), test compound 40 μg/ml): 0 pg/mL
TNF ([2]; 1 μg/ml, LPS 0.6 ng/ml): 474 pg/mL
TNF % of control ([2]; 1 μg/ml, LPS 0.6 ng/ml): 65%
TNF ([2]; 1 μg/ml, LPS 20 ng/ml): 1395 pg/mL
TNF % of control ([2]; 1 μg/ml, LPS 20 ng/ml): 64%
TNF ([2]; 1 μg/ml, Medium): 1 pg/mL
TNF ([2]; 10 μg/ml, LPS 0.6 ng/ml): 203 pg/mL
TNF % of control ([2]; 10 μg/ml, LPS 0.6 ng/ml): 28%
TNF ([2]; 10 μg/ml, LPS 20 ng/ml): 1311 pg/mL
TNF % of control ([2]; 10 μg/ml, LPS 20 ng/ml): 61%
TNF ([2]; 10 μg/ml, Medium): 0 pg/mL
TNF ([2]; 40 μg/ml, LPS 0.6 ng/ml): 91 pg/mL
TNF % of control ([2]; 40 μg/ml, LPS 0.6 ng/ml): 13%
TNF ([2]; 40 μg/ml, LPS 20 ng/ml): 999 pg/mL
TNF % of control ([2]; 40 μg/ml, LPS 20 ng/ml): 46%
TNF ([2]; 40 μg/ml, Medium): 0 pg/mL
IL-10 ([4]; 1 μg/ml, LPS 0.6 ng/ml): 71 pg/mL
IL-10 % of control ([4]; 1 μg/ml, LPS 0.6 ng/ml): 108%
IL-10 ([4]; 1 μg/ml, LPS 20 ng/ml): 95 pg/mL
IL-10 % of control ([4]; 1 μg/ml, LPS 20 ng/ml): 85%
IL-10 ([4]; 1 μg/ml, Medium): 0 pg/mL
IL-10 ([4]; 10 μg/ml, LPS 0.6 ng/ml): 76 pg/mL
IL-10 % of control ([4]; 10 μg/ml, LPS 0.6 ng/ml): 114%
IL-10 ([4]; 10 μg/ml, LPS 20 ng/ml): 100 pg/mL
IL-10 % of control ([4]; 10 μg/ml, LPS 20 ng/ml): 90%
IL-10 ([4]; 10 μg/ml, Medium): 0 pg/mL
IL-10 ([4]; 40 μg/ml, LPS 0.6 ng/ml): 69 pg/mL
IL-10 % of control ([4]; 40 μg/ml, LPS 0.6 ng/ml): 104%
IL-10 ([4]; 40 μg/ml, LPS 20 ng/ml): 113 pg/mL
IL-10 % of control ([4]; 40 μg/ml, LPS 20 ng/ml): 102%
IL-10 ([4]; 40 μg/ml, Medium): 0 pg/mL
